Measured values as given in patent US20150315179A1, “COMPOUNDS AND METHODS OF TREATING NEUROLOGICAL DISORDERS” (Torrey Pines Institute For Molecular Studies, priority 2014, published 2015).

Legend:
[1] = tested on: sAPPα in supernatants of 7WD10 cells; experiment: Western blot sAPPα release assay, 7WD10 cells; format: cell-based
Protocol: (2). To ascertain that hits identified as a result of AlphaLISA assay are not due to artifacts of the detection system, the sAPPα levels were measured by Western blots as a secondary assay downstream of primary HTS to confirm hits or discard artifacts of the AlphaLISA assay. The assay was performed using a range of concentrations of hit compounds (10-5,000 nM). A hit compound named thiazole piperazine #244 (THPI-244) and THPI-326 induced dose-dependent increase of sAPPα in supernatants of 7WD10 cells (FIG. 1.3). […] Since compound THPI-244 increased sAPPα levels more than THPI-326, we focused on THPI-244 for further validation.
Western blot sAPPα release assay. 7WD10 cells were grown in 6-well plates and treated with test compounds and SAHA (vorinostat) at several concentrations in duplicate wells. After 24 h of drug exposure, the conditioned media (CM) was collected, centrifuged to remove cell debris and subjected to SDS-PAGE electrophoresis. sAPPα (6E10, mouse IgG from IBL America ltd) was detected using indicated antibody. To detect APP-FL holoprotein and C-terminal fragments (CTFs, CT15 antibody), the cells were lysed using lysis buffer (1% NP40) with complete protease inhibitor mix (Sigma) supplemented with sodium vanadate and microcystine. Samples were subjected to SDS-PAGE, transferred and immunoblotted with indicated antibodies and detected by enhanced chemiluminescence method. Quantification of Western blot signals was done using ImageJ software.

human primary neurons = experiment: MTT cytotoxicity, human primary neurons; format: cell-based
Text: (4). Toxicity is another crucial limitation for successful drug development as evidenced by recent failure of γ-secretase inhibitors at the clinical trials due to cytotoxicity (Cole, S L and Vassar, R, 2007, Mol. Neurodeg. 2, 22-47; Doody R S, et al. 2013. N. Eng. J. Med. 369, 341-350). Therefore we measured cytotoxicity by very sensitive MTT assay as described previously (Hayes, C D., et al. 2013, BMC Medicine. 26, 11.81; 23; Hayes, C D., et al., 2012, PLoS One 7, e45841) in human primary neurons obtained from a commercial source (cat #1520, ScienCell, Carlsbad, Calif., USA) and fibroblasts derived directly from A D patients (cat# AG06263C, Coriell Institute Cell repository supported by NINDS, NIH). […] We directly used human neurons for toxicity studies so as to reduce the chances of future failure at a later stage due to toxicity.

[2] = tested on: sAPPα release, fibroblasts derived from AD patients; experiment: sAPPα ELISA, AD fibroblasts; format: cell-based, human; conditions: 24 h
Protocol: (1). […] Therefore, we first used fibroblasts derived from AD patients (AG06263C, Coriell Cell repository, supported by NINDS/NIH) and exposed to THPI-244 for 24 h and measured sAPPα release by ELISA as done above for NT2 cells. […] We also confirmed dose-dependent effect of THPI-244 on sAPPα levels in human primary neurons transiently transfected with APP751 with Swedish mutation which is trafficked differently from WT APP and releases more sAPPα. Human neurons were grown on specially coated glass coverslips (cat # GG-18-PDL, NeuVitro, Germany). We could reproducibly achieve nearly 30% transfection efficiency using a nanoparticle based transfection reagent called Neuromag (cat # NM150299, OZ Biosciences, France).

TrkA protein levels = experiment: TrkA protein immunoblot, NT2 cells with or without PKC inhibitor; format: cell-based, human
Protocol: (3). THPI-244 increases TrkA receptor levels independent of protein kinase C (PKC). Next to clarify whether increased sAPPα levels depends on increased TrkA activation, NT2 cells were treated with THPI-244 with or without TrkA inhibitor (cat # GW 441756, Tocris Bioscience) at 50 nM final concentration. After 24 h, sAPPα levels were quantified from the conditioned medium by immunoblots. […] We next wanted to address whether increased TrkA protein levels by THPI-244 depends on PKC since PKC activators are well-known to induce sAPPα secretion (Etcheberringaray, R., et al., 2004, PNAS, 101, 11141-11146). NT2 cells were similarly treated with THPI-244 at 100 nM with or without PKC inhibitor (GF 109203, cat #0741, Tocris Bioscience) at 1.0 nM and TrkA protein levels were quantified by immunoblots as shown in FIG. 1.10 (right). […] Thus increased sAPPα level by THPI-244 is through upregulation of TrkA receptor independent of PKC.

C57BL/6 mice = experiment: Lethal dose (LD50) study in mice; format: in vivo, mouse
Text: Wild-type (WT) C57BL/6 mice aged about 6 months were used in the study. The compound THPI-244 was initially dissolved in 100% DMSO and then diluted to final 10% DMSO with phosphate buffered saline (PBS). […] Among these 6 mice, 3 mice received repeated injections (i.p) of compound THPI-244 for 5 days.

Question: Which results are given for `O=C(Cc1ccccc1)N[C@H](CNc1nc(CN2CCN(C(=O)Cc3ccccc3)CC2)cs1)c1ccccc1` [THPI-244]?
Answer: levels of APP-FL ([1]; CHO cells, Western blot): no change; increase of sAPPα over untreated control cells ([1]; as low as 10 nM, 7WD10 supernatants): 2 fold; concentration from which cytotoxicity is significant (human primary neurons; MTT, 24 h exposure, human primary neurons): 40 µM; therapeutic window (human primary neurons; human primary neurons and AD fibroblasts): 800; concentration from which sAPPα increase is significant [2]: 50 nM; TrkA protein levels (TrkA protein levels; THPI-244 100 nM): 197%; TrkA protein levels (TrkA protein levels; THPI-244 100 nM with PKC inhibitor GF 109203 1.0 nM): 192%; death (C57BL/6 mice; 100 mg/kg i.p., 6 mice, monitored for 5 days): did not result in the death of any of the 6 mice; survival (C57BL/6 mice; 200 mg/kg, single mouse): survived without visible ill effects; lethal effect (C57BL/6 mice; repeated i.p. injections for 5 days, 3 mice): None of the mice showed any lethal effect
